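Five concentrations, 48 hours, 96-well plates. GI50: concentration for 50% inhibition of growth.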 The source made the active and inactive calls. No stated cut-off is given here; in the data, active = GI50 up to about 1.1 µM and inactive = higher.
Columns and labels:
Assay in all cases: NCI anticancer screen, dose series, 48 h
DLD-1 = tested on: DLD-1
DMS-114 = tested on: DMS-114
DMS-273 = tested on: DMS-273
HOP-18 = tested on: HOP-18
KM-20L2 = tested on: KM-20L2
RXF 631 = tested on: RXF 631
SNB-78 = tested on: SNB-78
XF498 = tested on: XF498
M19-MEL = tested on: M19-MEL

Row | Structure (SMILES) | GI50 (DLD-1) | GI50 (DMS-114) | GI50 (DMS-273) | GI50 (HOP-18) | GI50 (KM-20L2) | GI50 (RXF 631) | GI50 (SNB-78) | GI50 (XF498) | GI50 (M19-MEL)
1 | Cc1nn(-c2ccccc2)c(S)c1C(=O)c1ccccc1 | 4.85 µM (inactive) | 26.4 µM (inactive) | 40.1 µM (inactive) | < 0.01 µM (active) | 53 µM (inactive) | 27 µM (inactive) | 24.4 µM (inactive) | 35.2 µM (inactive) | –
2 | CC(C)(C)OC(=O)N[C@H]1CC(O)c2ccccc2N(CC(=O)O)C1=O (stereo partly specified) | > 100 µM (inactive) | > 100 µM (inactive) | > 100 µM (inactive) | > 100 µM (inactive) | > 100 µM (inactive) | > 100 µM (inactive) | – | > 100 µM (inactive) | > 100 µM (inactive)
3 | N=C(N)/N=C(/C=C/c1ccccc1)CC1OC(=O)c2ccccc21 (stereo unspecified) | > 100 µM (inactive) | > 100 µM (inactive) | > 100 µM (inactive) | – | > 100 µM (inactive) | – | – | > 100 µM (inactive) | > 100 µM (inactive)
4 | COc1ccc(NC(=O)C2=CC(=O)c3ccc(O)cc3C2=O)c(OC)c1 | > 100 µM (inactive) | > 100 µM (inactive) | – | > 100 µM (inactive) | > 100 µM (inactive) | > 100 µM (inactive) | > 100 µM (inactive) | > 100 µM (inactive) | > 100 µM (inactive)
5 | CC12Oc3ccc4ccccc4c3CC1Cc1c(ccc3ccccc13)O2 (stereo unspecified) | 58.1 µM (inactive) | 60.1 µM (inactive) | 18.8 µM (inactive) | 35.9 µM (inactive) | > 100 µM (inactive) | – | – | – | > 100 µM (inactive)
6 | COc1ccc2c(c1)[n+]([O-])c(C(=O)C/C(=N/OCCCc1ccccc1)C(=O)NC13CC4CC(CC(C4)C1)C3)c(C)[n+]2[O-] | > 100 µM (inactive) | > 100 µM (inactive) | > 100 µM (inactive) | > 100 µM (inactive) | > 100 µM (inactive) | > 100 µM (inactive) | > 100 µM (inactive) | > 100 µM (inactive) | > 100 µM (inactive)
7 | Nc1ccc(CCN2CCN(c3cccc(C(F)(F)F)c3)CC2)cc1 | 97.1 µM (inactive) | 26.4 µM (inactive) | – | > 100 µM (inactive) | > 100 µM (inactive) | 56.5 µM (inactive) | – | > 100 µM (inactive) | > 100 µM (inactive)
8 | COc1ccc(/C=N/N=C(\N)NO)c(OC)c1C | 29 µM (inactive) | 13.2 µM (inactive) | – | 5.24 µM (inactive) | – | – | 20.5 µM (inactive) | – | –
9 | C/C=C1\CCC2c3[nH]c4ccccc4c3CCN2C1 (stereo unspecified) | > 100 µM (inactive) | 91.8 µM (inactive) | > 100 µM (inactive) | – | 45.6 µM (inactive) | – | > 100 µM (inactive) | 17.1 µM (inactive) | > 100 µM (inactive)
10 | CSc1nc2c(c(O)c(C)c(=O)n2C2OCC(OC(C)=O)C(OC(C)=O)C2OC(C)=O)c(=O)n1C (stereo unspecified) | > 100 µM (inactive) | > 100 µM (inactive) | – | – | > 100 µM (inactive) | – | > 100 µM (inactive) | – | > 100 µM (inactive)
11 | Cc1cc(=O)oc2cc3c(cc12)Oc1ccccc1O3 | > 100 µM (inactive) | > 100 µM (inactive) | > 100 µM (inactive) | > 100 µM (inactive) | > 100 µM (inactive) | > 100 µM (inactive) | 53 µM (inactive) | > 10 µM (inactive) | > 100 µM (inactive)
12 | Cc1cc2c(C)n(Cc3ccc(Cl)cc3Cl)nc2c(C(=O)O)c1C | > 100 µM (inactive) | – | > 100 µM (inactive) | > 100 µM (inactive) | > 100 µM (inactive) | > 100 µM (inactive) | > 100 µM (inactive) | > 100 µM (inactive) | > 100 µM (inactive)
13 | CCCCCCCCCCCCCCCc1ccc(OCC(O)CO)cc1 (stereo unspecified) | 44.2 µM (inactive) | 29.7 µM (inactive) | 17.7 µM (inactive) | > 100 µM (inactive) | 31.6 µM (inactive) | 27.1 µM (inactive) | 29.7 µM (inactive) | 19.4 µM (inactive) | 18 µM (inactive)
14 | O=C(CC1C(=O)c2ccccc2C1=C1C(=O)c2ccccc2C1=O)c1ccccc1 (stereo unspecified) | > 100 µM (inactive) | > 100 µM (inactive) | > 100 µM (inactive) | > 100 µM (inactive) | > 100 µM (inactive) | – | > 100 µM (inactive) | > 100 µM (inactive) | 78.9 µM (inactive)
15 | C1=CC2SSSC2C1 (stereo unspecified) | > 100 µM (inactive) | > 100 µM (inactive) | > 100 µM (inactive) | > 100 µM (inactive) | > 100 µM (inactive) | – | – | > 100 µM (inactive) | > 100 µM (inactive)
16 | O=C(O)C1CC2CC(=O)C1C2 (stereo unspecified) | > 100 µM (inactive) | – | > 100 µM (inactive) | > 100 µM (inactive) | > 100 µM (inactive) | > 100 µM (inactive) | > 100 µM (inactive) | > 100 µM (inactive) | > 100 µM (inactive)
17 | Nc1ccc2c(SCC(=O)Nc3ccccc3-c3ccccc3NC(=O)CSc3c4ccccc4nc4cc(N)ccc34)c3ccccc3nc2c1 | 12.9 µM (inactive) | 18.9 µM (inactive) | 33 µM (inactive) | 26 µM (inactive) | 33.1 µM (inactive) | 27.9 µM (inactive) | 40.9 µM (inactive) | 19.9 µM (inactive) | 20.2 µM (inactive)
18 | S=C(N/N=C/c1ccccc1)NC1CC(c2ccccc2)Oc2ccccc21 (stereo unspecified) | 91.8 µM (inactive) | 43.2 µM (inactive) | 66.7 µM (inactive) | – | – | – | 22 µM (inactive) | 34.5 µM (inactive) | > 100 µM (inactive)
19 | CCC1CC(C)=CCN1S(=O)(=O)c1ccc(C)cc1 (stereo unspecified) | – | 15.9 µM (inactive) | 22 µM (inactive) | – | 19.2 µM (inactive) | – | – | – | –
20 | Cc1ccccc1C1SCc2nc3ccccc3n21 (stereo unspecified) | > 100 µM (inactive) | 6.79 µM (inactive) | 4.6 µM (inactive) | > 100 µM (inactive) | – | – | > 100 µM (inactive) | – | > 100 µM (inactive)
21 | CCOc1ccc(NCC2CC/C(=C\c3ccc(Cl)cc3)C2=O)cc1 (stereo unspecified) | 10 µM (inactive) | 26.4 µM (inactive) | > 39.8 µM (inactive) | 22.1 µM (inactive) | > 38.3 µM (inactive) | – | 98.9 µM (inactive) | 19.3 µM (inactive) | > 42.4 µM (inactive)
22 | CN/C(=N\C#N)N(Cc1ccccc1)Cc1ccccc1 | > 100 µM (inactive) | – | > 100 µM (inactive) | – | > 100 µM (inactive) | – | > 100 µM (inactive) | > 100 µM (inactive) | > 100 µM (inactive)
23 | O=C(Nc1ccc(Cl)cc1)C1C(=O)C(=O)N(c2ccc(Cl)cc2)C1=O (stereo unspecified) | 68.9 µM (inactive) | > 100 µM (inactive) | > 100 µM (inactive) | > 100 µM (inactive) | 45.8 µM (inactive) | > 100 µM (inactive) | 54 µM (inactive) | > 100 µM (inactive) | > 100 µM (inactive)
24 | COc1cc(CC2c3cc(OC)c(OC)cc3CCN2C)c(C(=O)O)cc1OC (stereo unspecified) | > 100 µM (inactive) | > 100 µM (inactive) | > 100 µM (inactive) | > 100 µM (inactive) | > 100 µM (inactive) | – | > 100 µM (inactive) | > 100 µM (inactive) | > 100 µM (inactive)
25 | COc1ccc(CCN(C)C2CCC(C#N)(c3ccc(OC)c(OC)c3)CC2)cc1OC (stereo unspecified) | > 100 µM (inactive) | – | > 100 µM (inactive) | > 100 µM (inactive) | 48.4 µM (inactive) | 61.2 µM (inactive) | – | > 100 µM (inactive) | > 100 µM (inactive)
26 | NN/C(Cc1ccccc1)=N/NC(N)=S | > 100 µM (inactive) | 41.3 µM (inactive) | > 100 µM (inactive) | 24 µM (inactive) | > 100 µM (inactive) | > 100 µM (inactive) | – | > 100 µM (inactive) | > 100 µM (inactive)
27 | COc1ccc(OC)c(/C=C/C(=O)C(C)(C)C)c1 | 19.9 µM (inactive) | 15.2 µM (inactive) | 21.1 µM (inactive) | 21.3 µM (inactive) | 23.6 µM (inactive) | 32.8 µM (inactive) | – | – | 16.3 µM (inactive)
28 | CCOC(=O)/C(=C/c1ccccc1)N(CC)CC | – | > 100 µM (inactive) | > 100 µM (inactive) | – | > 100 µM (inactive) | – | > 100 µM (inactive) | > 100 µM (inactive) | > 100 µM (inactive)
29 | O=C1CCC2(c3ccc(F)cc3)Nc3ccccc3N12 (stereo unspecified) | > 100 µM (inactive) | > 100 µM (inactive) | – | – | > 100 µM (inactive) | > 100 µM (inactive) | > 100 µM (inactive) | > 100 µM (inactive) | > 100 µM (inactive)
30 | O=c1ccn(/C=C/C(O)C(O)CO)c(=O)[nH]1 (stereo unspecified) | > 100 µM (inactive) | > 100 µM (inactive) | > 100 µM (inactive) | > 100 µM (inactive) | > 100 µM (inactive) | > 100 µM (inactive) | > 100 µM (inactive) | > 100 µM (inactive) | > 100 µM (inactive)

— ChEMBL document CHEMBL1201862, “PubChem BioAssay data set” (2004)
